Common to all, as to format: biochemical
The target of one experiment is T1, Rac1b (Homo sapiens, UniProt P63000).
T1 construct: GST (N); made in house; host or cells: E. coli BL21 Codon+RIL
In words: Nucleotide binding assay: BODIPY-GTP binding to Rac1b. Conditions: for inhibition at 50 µM: read-out: Rac1b % inhibition of BODIPY-GTP binding. Here is the method:
(§1) Fluorescence of GTP analog BODIPY-GTP increases when it binds to small G proteins. This property was used to assess ability of compounds to inhibit nucleotide binding to Rac1, Rac1b and Cdc42. 2 μM GST-Rac1 and 6 μg His6-Tiam1-DH/PH were diluted in a buffer containing 20 mM Tris, 50 mM NaCl, and 1 mM MgCl2. This mixture was loaded in a 96-well plate. Fluorescence recording were started (λEx: 485 nm; λEm: 538 nm) using a spectrofluorimeter (Fluoroskan; Thermolab Systems). Assay was initiated by the addition of 2 μM BODIPY-GTP with or without various doses of test compound. Fluorescence values were recorded, and data were processed as follows: background fluorescence (unbound BODIPY-GTP) was retrieved from fluorescence values.
(§2) This assay allows determining whether compounds can inhibit the binding of a fluorescent nucleotide to recombinant small G proteins of interest. The effect of various alkaloid compounds on binding of BODIPY-GTP to Rac1 activated by DH/PH domain of Guanine nucleotide Exchange Factor Tiam1 (Rac1/Tiam1), Rac1b and Cdc42 is described below.

The target in the next experiment is T2, Cdc42 (Homo sapiens, UniProt P60953).
T2 construct: GST (N); made in house; host or cells: E. coli BL21 Codon+RIL
Description: Nucleotide binding assay: BODIPY-GTP binding to Cdc42. Conditions: read-out: Cdc42 % inhibition of BODIPY-GTP binding. The protocol: as §1, §2

For experiment [1], the target named is T3, Rac1 activated by DH/PH domain of Guanine nucleotide Exchange Factor Tiam1 (Rac1/Tiam1) (Homo sapiens, UniProt P63000).
T3 construct: made in house; host or cells: E. coli BL21 Codon+RIL
Description: Nucleotide binding assay: BODIPY-GTP binding to Rac1 activated by Tiam1 DH/PH. Conditions: for inhibition at 50 µM: read-out: Rac1 % inhibition of BODIPY-GTP binding. The protocol:
as §1, §2

Setting [2] is: final concentration of 50 μM, Rac1/Tiam1.
The mark [3] stands for this setting: dose-response study (1-2-5-10-25-50-75-100 μM).

Where a name gives a salt, the structure may show the parent alone. Read-outs that look alike come from different tables or passages of the source.

T2 sequence (P60953 whole entry, species assumed): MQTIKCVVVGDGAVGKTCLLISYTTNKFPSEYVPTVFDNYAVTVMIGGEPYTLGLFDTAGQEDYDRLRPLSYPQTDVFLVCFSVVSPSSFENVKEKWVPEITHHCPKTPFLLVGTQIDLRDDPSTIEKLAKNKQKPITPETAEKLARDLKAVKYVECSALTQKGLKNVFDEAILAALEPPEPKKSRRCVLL

For `CCc1cc2c(cc1C1Cc3ccc(OC)c(OC)c3CN1C)OCO2` (racemic) [Compound 20, (±)-3-(6-Ethylbenzo[d][1,3]dioxol-5-yl)-7,8-dimethoxy-2-methyl-1,2,3,4-tetrahydroisoquinolinylium chloride], the inhibition at 50 µM was -6 ± 10% on Rac1b (final concentration of 50 μM), 8 ± 3% on Cdc42 (final concentration of 50 μM) and 4 ± 4% in experiment [1] (setting [2]).
Take `COc1cc2cc(-c3cccnc3)nc(C)c2cc1OC` [Compound 36, 6,7-Dimethoxy-1-methyl-3-(pyridin-3-yl)isoquinoline dihydrochloride]: the inhibition at 50 µM at Rac1b (final concentration of 50 μM) is 12 ± 3%; at Cdc42 (final concentration of 50 μM), -4 ± 13%; in experiment [1] (setting [2]), 10 ± 3%.
For the compound `COc1cc2cc(-c3ccccc3NC(=O)N(C)C)nc(C)c2cc1OC` [Compound 46, 3-(2-(6,7-Dimethoxy-1-methylisoquinolin-3-yl)phenyl)-1,1-dimethylurea hydrochloride], the figures for the inhibition at 50 µM (on Rac1b (final concentration of 50 μM); on Cdc42 (final concentration of 50 μM); in experiment [1] (setting [2])) were 9 ± 3%, 2% and 8 ± 3%, respectively.
Regarding `COc1ccc2c(c1OC)CN1CCc3cc4c(cc3C1C2)OCO4` (racemic) [Compound 3, (±)-Canadine hydrochloride], the inhibition at 50 µM on Rac1b is -7 ± 4%; in experiment [1] it was 1 ± 3%.
As for `COc1cc2c(cc1OC)CN(Cc1cccc(O)c1O)CC2` [Compound 18, 2-(2,3-Dihydroxybenzyl)-6,7-dimethoxy-1,2,3,4-tetrahydroisoquinolinium chloride], the inhibition at 50 µM is 4 ± 3% on Rac1b (final concentration of 50 μM), -8 ± 10% at Cdc42 (final concentration of 50 μM) and 1 ± 2% in experiment [1] (setting [2]).
Take `COc1cc2cc3c4cc(OC)c(OC)cc4cc[n+]3c(C)c2cc1OC` [Compound 8, 8-methyl-2,3,10,11-tetramethoxydibenzo[a,g]quinolizinium chloride, hydrate, reference compound]: the inhibition at 50 µM at Rac1b amounted to 44 ± 4%; at Cdc42, 21 ± 2%; in experiment [1], 36 ± 4%.
With `COc1cc2cnc(-c3ccccc3)cc2cc1OC` [Compound 49, 6,7-Dimethoxy-3-phenylisoquinolinium chloride], the results for the inhibition at 50 µM (on Rac1b (final concentration of 50 μM); on Cdc42 (final concentration of 50 μM); in experiment [1] (setting [2])) were 2 ± 4%, 2 ± 6% and 1 ± 5%, respectively.
With `COc1cc2cc(-c3ccc(C)cc3)nc(C)c2cc1OC` [Compound 43, 6,7-Dimethoxy-1-methyl-3-p-tolylisoquinolinylium chloride], the inhibition at 50 µM on Rac1b (final concentration of 50 μM) worked out at 17 ± 2%; at Cdc42 (final concentration of 50 μM), 15 ± 2%; in experiment [1] (setting [2]), 19 ± 1%.
For `COc1ccc(-c2cc3cc(OC)c(OC)cc3c(C)n2)cn1` [Compound 35, 6,7-Dimethoxy-3-(6-methoxypyridin-3-yl)-1-methylisoquinoline dimethanesulfonate], the inhibition at 50 µM at Rac1b (final concentration of 50 μM) stood at 6 ± 2%; at Cdc42 (final concentration of 50 μM), 11 ± 2%; in experiment [1] (setting [2]), 6 ± 4%.
Turning to `COc1cc2cc(-c3ccc4c(c3)OCO4)nc(C)c2cc1OC` [Compound 21, 3-(Benzo[d][1,3]dioxol-5-yl)-6,7-dimethoxy-1-methylisoquinoline hydrochloride], the inhibition at 50 µM at Rac1b (final concentration of 50 μM) came out at 12 ± 2%; at Cdc42 (final concentration of 50 μM), 18 ± 2%; in experiment [1] (setting [2]), 13 ± 2%.
For `COc1ccc2c(c1OC)C(Cc1ccccc1)N1CCc3cc4c(cc3C1C2)OCO4` (racemic) [Compound 12, (±)-8-Benzyl-9,10-dimethoxy-5,8,13,13a-tetrahydro-6H-[1,3]dioxolo[4,5-g]isoquino[3,2-a]isoquinoline hydrochloride], in that order: 31 ± 4%, 9 ± 2% and 23 ± 3%.
With `COc1cc2cc(-c3cccc(N(S(C)(=O)=O)S(C)(=O)=O)c3)nc(C)c2cc1OC` [Compound 29, N-(3-(6,7-Dimethoxy-1-methylisoquinolin-3-yl)phenyl)-N-(methylsulfonyl)methanesulfonamide hydrochloride], the inhibition at 50 µM is -2 ± 2% at Rac1b (final concentration of 50 μM), 2 ± 4% at Cdc42 (final concentration of 50 μM) and -5 ± 2% in experiment [1] (setting [2]).
For `COc1cc2cc(-c3ccccc3NC(C)=O)nc(C)c2cc1OC` [Compound 38, N-(2-(6,7-Dimethoxy-1-methylisoquinolin-3-yl)phenyl)acetamide], in that order: 0%, 3 ± 7% and 1 ± 3%.
`Cc1c2cc(O)c(O)cc2cc(-c2ccc(O)c(O)c2)[n+]1C` [Compound 45, 3-(3,4-Dihydroxyphenyl)-6,7-dihydroxy-1,2-dimethylisoquinolinium chloride]: the inhibition at 50 µM on Rac1b (final concentration of 50 μM) was determined as 36 ± 4%; on Cdc42 (final concentration of 50 μM), 12 ± 1%; in experiment [1] (setting [2]), 22 ± 1%.
Take `CNC(=O)c1ccc(-c2cc3cc(OC)c(OC)cc3c(C)n2)cc1` [Compound 34, 4-(6,7-Dimethoxy-1-methylisoquinolin-3-yl)-N-methylbenzamide]: the inhibition at 50 µM on Rac1b (final concentration of 50 μM) was 3 ± 3%; on Cdc42 (final concentration of 50 μM), 3 ± 5%; in experiment [1] (setting [2]), -2 ± 3%.
For `COc1cc2cc(-c3cccc([N+](=O)[O-])c3)nc(C)c2cc1OC` [Compound 23, 6,7-Dimethoxy-1-methyl-3-(3-nitrophenyl)isoquinolinium chloride], in that order: 10 ± 4%, 14 ± 3% and 3 ± 4%.
For `COc1cc2cc(-c3ccccc3)[n+](C)cc2cc1OC` [Compound 50, 6,7-Dimethoxy-2-methyl-3-phenylisoquinolinium chloride], in that order: 10 ± 5%, 10 ± 6% and 3 ± 5%.
For `COc1ccc2c(c1OC)C[N+]1(Cc3ccccc3)CCc3cc4c(cc3C1C2)OCO4` (racemic) [Compound 5, (±)-7-benzyl-9,10-dimethoxy-5,8,13,13a-tetrahydro-6H-[1,3]dioxolo[4,5-g]isoquino[3,2-a]isoquinolinylium bromide], in that order: 16 ± 2%, 3 ± 1% and 9 ± 2%.
Regarding `COc1cc2cc(-c3cccc(NC(C)=O)c3)nc(C)c2cc1OC` [Compound 31, N-(3-(6,7-Dimethoxy-1-methylisoquinolin-3-yl)phenyl)acetamide hydrochloride], the values for the inhibition at 50 µM (on Rac1b (final concentration of 50 μM); on Cdc42 (final concentration of 50 μM); in experiment [1] (setting [2])) were 10 ± 3%, 10 ± 1% and -1 ± 2%, respectively.
For the compound `COc1ccc(-c2cc3cc(OC)c(OC)cc3c(C)n2)cc1` [Compound 40, 6,7-Dimethoxy-3-(4-methoxyphenyl)-1-methylisoquinolinylium chloride], the inhibition at 50 µM was found to be 17 ± 3% on Rac1b (final concentration of 50 μM), 14 ± 1% on Cdc42 (final concentration of 50 μM) and 15 ± 3% in experiment [1] (setting [2]).
For `COc1ccc2c(c1OC)C(Cc1ccccc1)N1CCc3cc4c(cc3C1=C2)OCO4` (centres unmarked) [Compound 11, 8-benzyl-9,10-dimethoxy-5,8-dihydro-2H-6H-[1,3]dioxolo[4,5-g]isoquino[3,2-a]isoquinoline], the inhibition at 50 µM at Rac1b (final concentration of 50 μM) was -2 ± 3%; on Cdc42 (final concentration of 50 μM) it was 1 ± 1%; in experiment [1] (setting [2]), -1 ± 2%.
Take `COc1ccc2cc3[n+](cc2c1OC)CCc1cc2c(cc1-3)OCO2` [Compound 1, Berberine chloride, reference compound]: the “maximum inhibition on Rac1b” value at Rac1b (setting [3]) is recorded as 29±1%. Besides, the inhibition at 50 µM is 23 ± 2% at Rac1b (final concentration of 50 μM), 8 ± 2% on Cdc42 (final concentration of 50 μM) and 15 ± 2% in experiment [1] (setting [2]). Besides, the “maximum inhibition on Rac1/Tiam1” value in experiment [1] (setting [3]) is recorded as 19±1%.
Regarding `COc1cc2c(cc1OC)-c1cc3ccc(OC)c(OC)c3c[n+]1CC2` [Compound 2, palmatine chloride, hydrate, reference compound], the inhibition at 50 µM on Rac1b amounted to 19 ± 3%; at Cdc42 (final concentration of 50 μM), 11 ± 2%; in experiment [1] it was 15 ± 2%.
In the case of `COc1cc2cc(-c3ccc(C(=O)OC(C)C)cc3)nc(C)c2cc1OC` [Compound 32, Isopropyl 4-(6,7-dimethoxy-1-methylisoquinolin-3-yl)benzoate hydrochloride], the figures for the inhibition at 50 µM (on Rac1b (final concentration of 50 μM); on Cdc42 (final concentration of 50 μM); in experiment [1] (setting [2])) were 10 ± 4%, 2 ± 1% and 4 ± 5%, respectively.
Consider `COc1cc2cc(-c3ccc(Cl)c(Cl)c3)nc(C)c2cc1OC` [Compound 39, 3-(3,4-Dichlorophenyl)-6,7-dimethoxy-1-methylisoquinolinylium chloride], for which the inhibition at 50 µM at Rac1b (final concentration of 50 μM) stood at 42 ± 7%; on Cdc42 (final concentration of 50 μM), 5 ± 1%; in experiment [1] (setting [2]) it was 17 ± 7%.
As for `Oc1cc2c(cc1O)-c1cc3ccc(O)c(O)c3c[n+]1CC2` [Compound 6, 5,6-dihydro-isoquino[3,2-a]isoquinolinylium-2,3,9,10-tetraol chloride], the inhibition at 50 µM on Cdc42 (final concentration of 50 μM) came out at 100%.

As a reminder, the inhibition is the change of the read-out against control, counted positive when it falls.

The values are drawn from patent publication US20100120810A1, “COMPOUNDS AND METHODS FOR MODULATING RHO GTPASES” (priority 2007, published 2010).
